According to publication PMC10185354, “MyosinA is a druggable target in the widespread protozoan parasite Toxoplasma gondii” (PLOS Biology, 2023):

Tests used:
TgMyoA (myosinA) [1] = molecular target: T1, TgMyoA (myosinA) (Toxoplasma gondii, UniProt O00934); assay: actin-activated ATPase (ADP-Glo) at […] compound; assay type: biochemical
T1 construct: recombinant TgMyoA heavy chain co-expressed with TgMLC1 and TgELC1 in Sf9 cells; with TgMLC1, TgELC1

TgMyoA (myosinA) [2] = molecular target: T1, TgMyoA (myosinA); assay: actin-activated ATPase (ADP-Glo) at […] compound; partial inhibition; assay type: biochemical

| Structure (SMILES) | actin-activated ATPase (ADP-Glo) at 20 μM compound (TgMyoA (myosinA) [1]) | actin-activated ATPase (ADP-Glo) at 20 μM compound; partial inhibition (TgMyoA (myosinA) [2]) |
| --- | --- | --- |
| Clc1ccc(C2(NCc3c[nH]nc3-c3cccs3)CC2)cc1 [VEST2] | inhibition of both in vitro ATPase activity and parasite growth were retained when the p-OMe substituent in KNX-002 was replaced |  |
| Cc1ccc(C2(NCc3c[nH]nc3-c3cccs3)CC2)cc1 [VEST3] |  | partially retained in analogs containing p-Me (VEST3) or m,p-dichloro (VEST4) substituents |
| Clc1ccc(C2(NCc3c[nH]nc3-c3cccs3)CC2)cc1Cl [VEST4] |  | partially retained in analogs containing p-Me (VEST3) or m,p-dichloro (VEST4) substituents |
